Measurements from PMC12562155, “Interference-Free Measurement of Urinary Angiotensin-Converting Enzyme (ACE) Activity: Diagnostic and Therapeutic Monitoring Implications” (Biomedicines, 2025).
Counter-ions that a name gives are not always drawn. Residues, ends and D or L forms follow the SMILES beside them. *: point of attachment. Cbz = O=C(OCc1ccccc1)*

Legend:
Assay type in all cases: biochemical
[1] = biological target: T1, urinary angiotensin-converting enzyme (uACE) (Homo sapiens, UniProt P12821); test: Fluorescent kinetic uACE activity assay with ACE-specific inhibitors and inhibitors of other proteases (sensitivity testing); conditions: for effect on measured uACE activity: peptidase inhibitors, inhibitor-free 10 kDa retentate
T1 construct: from tissue; host or cells: human urine (native, or retentate of 10 kDa / 30 kDa Vivaspin 20 membrane filters)
T1 sequence (P12821 30-1232 limits assumed): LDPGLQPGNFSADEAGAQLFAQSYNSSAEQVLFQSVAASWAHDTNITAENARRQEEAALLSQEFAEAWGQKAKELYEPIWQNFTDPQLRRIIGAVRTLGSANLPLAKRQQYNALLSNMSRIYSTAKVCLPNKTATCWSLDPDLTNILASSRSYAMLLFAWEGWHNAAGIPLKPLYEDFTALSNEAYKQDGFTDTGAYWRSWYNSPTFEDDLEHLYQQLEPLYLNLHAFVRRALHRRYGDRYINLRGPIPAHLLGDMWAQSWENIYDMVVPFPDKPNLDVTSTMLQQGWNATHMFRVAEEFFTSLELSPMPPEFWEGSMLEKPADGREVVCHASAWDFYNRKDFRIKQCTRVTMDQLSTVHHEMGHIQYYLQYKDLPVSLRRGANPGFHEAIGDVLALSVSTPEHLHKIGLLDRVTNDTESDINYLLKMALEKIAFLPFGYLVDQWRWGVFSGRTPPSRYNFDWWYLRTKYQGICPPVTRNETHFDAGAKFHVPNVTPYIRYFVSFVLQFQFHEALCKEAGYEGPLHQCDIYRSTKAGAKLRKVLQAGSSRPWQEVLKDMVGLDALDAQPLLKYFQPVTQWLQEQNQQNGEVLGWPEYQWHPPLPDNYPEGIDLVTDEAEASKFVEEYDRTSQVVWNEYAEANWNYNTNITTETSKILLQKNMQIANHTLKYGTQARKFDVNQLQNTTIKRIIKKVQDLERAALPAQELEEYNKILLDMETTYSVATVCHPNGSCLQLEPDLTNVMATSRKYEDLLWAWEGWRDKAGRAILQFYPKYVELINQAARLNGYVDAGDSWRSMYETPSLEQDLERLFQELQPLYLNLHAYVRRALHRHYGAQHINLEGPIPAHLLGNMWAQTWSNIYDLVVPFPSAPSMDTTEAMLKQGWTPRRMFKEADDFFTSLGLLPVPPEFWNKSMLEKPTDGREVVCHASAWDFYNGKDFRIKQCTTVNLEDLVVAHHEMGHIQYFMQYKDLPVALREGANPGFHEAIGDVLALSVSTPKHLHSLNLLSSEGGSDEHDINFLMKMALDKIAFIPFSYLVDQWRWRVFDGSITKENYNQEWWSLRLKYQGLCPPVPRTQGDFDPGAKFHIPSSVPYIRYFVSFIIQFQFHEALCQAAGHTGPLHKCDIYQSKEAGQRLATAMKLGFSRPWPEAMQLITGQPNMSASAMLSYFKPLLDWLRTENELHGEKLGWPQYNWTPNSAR

[2] = biological target: T1, urinary angiotensin-converting enzyme (uACE); test: Fluorescent kinetic ACE activity assay on inhibitor-free ACE purified from urine (30 kDa retentate) with potential endogenous inhibitors; conditions: for IC50: ACE purified from urine (30 kDa retentate), two-phase decay fit; for uACE inhibition within reference (physiological) urinary concentration range: ACE purified from urine, physiological concentration range of the molecule in urine
Procedure: (§1) ACE activity was measured using the optimized fluorescent kinetic method previously reported by our group with different sample dilutions for each experiment.
In the final dilutional protocol, the reaction mixture contained 100 mM tris(hydroxymethyl)aminomethane hydrochloride (TRIS) buffer (pH 7.0), 15 μM Abz-FRK(Dnp)P-OH substrate (synthesized by Peptide 2.0, Chantilly, VA, USA), 50 mM NaCl, 10 μM ZnCl2, and urine at 64-fold and 128-fold final dilutions. […] Continuous recording of fluorescent intensity change was performed for 90 min with 1-min measurement intervals at 37 °C. Data points between 20 min and 80 min were used for analysis. When activity measured at 64-fold dilution exceeded that measured at 128-fold, the 64-fold results were used to avoid over-dilution bias of dilute urine samples.
Inhibitor-free ACE pre-purified on a 30 kDa Vivaspin 20 membrane filter column was used to identify inhibitors. Potential inhibitors were dissolved according to factory instructions (Urea: Cat. No.: U6504-1KG; Sigma-Aldrich, St. Louis, MO, USA; Uric acid: Cat. No.: U2625-25G; Sigma-Aldrich, St. Louis, MO, USA; Urobilinogen: Cat. No: 651-10; Lee Biosolutions, Maryland Heights, MO, USA). In the corresponding experiments, uACE with activities ranging from 0.15 to 0.53 U/L was applied. The obtained curves were fitted using the ‘two-phase decay’ equation in GraphPad Prism software, version 9 (GraphPad Software Inc., San Diego, CA, USA).

[3] = biological target: T2, serum ACE (Homo sapiens, UniProt P12821); test: Serum ACE activity in the presence of phosphoramidon; conditions: compared with effect on uACE
T2 construct: from tissue; host or cells: serum
T2 sequence (P12821 30-1232 limits assumed): as above
Procedure: as §1

effect on measured uACE activity [1] | uACE inhibition within reference (physiological) urinary concentration range [2] | Compound | other results
did not alter uACE activity | – | C[C@H](NC(=O)[C@@H]1CCCN1C(=O)[C@@H]1CCCN1C(=O)[C@@H](O)[C@H](N)Cc1ccccc1)C(N)=O [apstatin, Apstatin] | –
did not alter uACE activity | – | CC(C)C[C@H](NC(=O)[C@@H](O)[C@H](N)Cc1ccccc1)C(=O)O [bestatin hydrochloride, Bestatin hydrochloride] | –

The remaining lines, values behind:

Compound | effect on measured uACE activity [1] | uACE inhibition within reference (physiological) urinary concentration range [2] | other results
CC(C)C[C@H](N[C@@H](Cc1cncn1Cc1cc(Cl)cc(Cl)c1)C(=O)O)C(=O)O [MLN-4760] | had no effect | – | –
CC(C)C[C@@H](N)[C@H](O)C(=O)N[C@H](C(=O)N[C@H](C(=O)N[C@@H](CC(=O)O)C(=O)O)C(C)C)C(C)C.Cl [Amastatin hydrochloride] | had no effect | – | –
O=c1[nH]c(=O)c2[nH]c(=O)[nH]c2[nH]1 [Uric acid] | – | 30–50% | IC50 [2]: 3.61 mM
NC(N)=O [Urea] | – | 10–25% | –
O=C[C@@H]1CCCN1C(=O)[C@@H]1CCCN1C(=O)OCc1ccccc1 [Z-prolyl-prolinal] (Cbz-Pro-Pro-aldehyde) | no detectable effect | – | –
CCC1=C(C)C(Cc2[nH]c(Cc3[nH]c(CC4NC(=O)C(C)=C4CC)c(C)c3CCC(=O)O)c(CCC(=O)O)c2C)NC1=O (stereo not drawn) [Urobilinogen] | – | 3–20% | IC50 [2]: 0.298 mM; IC50 ([2]; listed as urobilinogen): 0.298 mM
NCCCC[C@H](N[C@@H](CCc1ccccc1)C(=O)O)C(=O)N1CCC[C@H]1C(=O)O [lisinopril] | – | – | inhibition of ACE activity in control reactions ([1]; 1 μM): completely inhibiting ACE activity; extent of uACE activity inhibition ([1]; ACE-inhibitor drugs, concentration series): completely inhibited
CC(C)C[C@H](NP(=O)(O)O[C@@H]1O[C@@H](C)[C@H](O)[C@@H](O)[C@H]1O)C(=O)N[C@@H](Cc1c[nH]c2ccccc12)C(=O)O [phosphoramidon disodium salt, Phosphoramidon disodium salt] | – | – | reduction of uACE activity ([1]; 1 μM concentration): approximately 35%; effect on serum ACE activity [3]: comparable inhibitory effect
